Measurements reported in patent US20240122182A1, “PESTICIDALLY ACTIVE HETEROCYCLIC DERIVATIVES WITH SULFUR CONTAINING SUBSTITUENTS” (SYNGENTA CROP PROTECTION AG, priority 2021, published 2024).

Tests used:
Assay type in all cases: in vivo
[1] = system: Chilo suppressalis (Striped Rice Stemborer); experiment: Activity against Chilo suppressalis (striped rice stemborer), artificial diet; conditions: 144 h, application rate of 200 ppm, L2 larvae, 6 days after infestation, read-out: control (mortality, anti-feeding effect, growth inhibition)
Summary of the method: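 Scoring covers mortality, anti-feedant effect and growth inhibition at 6 days post-infestation, relative to untreated diet, with activity defined as at least one category above untreated. Test solutions were aqueous, made from 10'000 ppm DMSO stocks, and applied to artificial diet before drying and infestation with L2 larvae.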

[2] = system: Diabrotica Balteata (Corn Root Worm); experiment: Activity against Diabrotica balteata (corn root worm), maize sprouts sprayed; conditions: 96 h, application rate of 200 ppm, L2 larvae, 4 days after infestation, read-out: effect in at least one of the two categories (mortality or growth inhibition)
Summary of the method: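 Read-out is mortality plus growth inhibition relative to untreated controls, assessed 4 days after infestation. Sprouts resting on agar are sprayed with aqueous solutions derived from 10′000 ppm DMSO stocks and left to dry before L2 larvae (6 to 10 per well) are added.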

[3] = system: Euschistus heros (Neotropical Brown Stink Bug); experiment: Activity against Euschistus heros (neotropical brown stink bug), soybean leaves sprayed; conditions: 120 h, application rate of 200 ppm, N2 nymphs, 5 days after infestation, read-out: effect in at least one of the two categories (mortality or growth inhibition)
Method: Soybean leaves on agar in 24-well microtiter plates were sprayed with aqueous test solutions prepared from 10′000 ppm DMSO stock solutions. After drying the leaves were infested with N2 nymphs. The samples were assessed for mortality and growth inhibition in comparison to untreated samples 5 days after infestation.

[4] = system: Plutella xylostella (Diamond Back Moth); experiment: Activity against Plutella xylostella (diamond back moth), artificial diet; conditions: 192 h, application rate of 200 ppm, eggs, 8 days after infestation, read-out: effect in at least one of the two categories (mortality or growth inhibition)
Method: 24-well microtiter plates with artificial diet were treated with aqueous test solutions prepared from 10′000 ppm DMSO stock solutions by pipetting. After drying, Plutella eggs were pipetted through a plastic stencil onto a gel blotting paper and the plate was closed with it. The samples were assessed for mortality and growth inhibition in comparison to untreated samples 8 days after infestation.

[5] = system: Spodoptera littoralis (Egyptian Cotton Leaf Worm); experiment: Activity against Spodoptera littoralis (Egyptian cotton leaf worm), cotton leaf discs sprayed; conditions: foliar, 72 h, application rate of 200 ppm, L1 larvae, 3 days after infestation, read-out: control (mortality, anti-feeding effect, growth inhibition)
Summary of the method: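 Leaf discs on agar; spray, aqueous dilution of 10′000 ppm DMSO stock; dry; 5 L1 larvae/disc. Read at 3 d post-infestation: mortality, antifeedant, growth inhibition vs untreated. Control = ≥1 category above untreated.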

[6] = system: Tetranychus urticae (Two-Spotted Spider Mite); experiment: Activity against Tetranychus urticae (two-spotted spider mite), bean leaf discs sprayed; conditions: foliar, 192 h
Method: Bean leaf discs on agar in 24-well microtiter plates were sprayed with aqueous test solutions prepared from 10′000 ppm DMSO stock solutions. After drying the leaf discs were infested with a mite population of mixed ages. The samples were assessed for mortality on mixed population (mobile stages) 8 days after infestation.

[7] = system: Carpocapsa (Cydia) Pomonella (Codling Moth); experiment: Activity against Carpocapsa (Cydia) pomonella (codling moth), larvicide, feeding/contact; conditions: 336 h, application rate of 12.5 ppm, L1 larvae, 14 days after infestation, read-out: effect in at least one of the two categories (mortality or growth inhibition)
[8] = system: Nilaparvata lugens (Brown Plant Hopper); experiment: Activity against Nilaparvata lugens (brown plant hopper), larvicide, systemic into water; conditions: 168 h, application rate of 12.5 ppm, N3 nymphs, 7 days after infestation
Method: Larvicide, systemic into water Rice plants cultivated in a nutritive solution were treated with the diluted test solutions into nourishing cultivation system. 1 day after application plants were infested with ˜20 N3 nymphs. 7 days after infestation samples were assessed for mortality and growth regulation.

[9] = system: Frankliniella occidentalis (Western Flower Thrips); experiment: Activity against Frankliniella occidentalis (western flower thrips), sunflower leaf discs sprayed; conditions: foliar, 168 h, application rate of 200 ppm, population of mixed ages, 7 days after infestation
Method: Sunflower leaf discs were placed on agar in 24-well microtiter plates and sprayed with aqueous test solutions prepared from […] stock solutions. After drying the leaf discs were infested with a Frankliniella population of mixed ages. The samples were assessed for mortality 7 days after infestation.

[10] = system: Myzus persicae (Green Peach Aphid); experiment: Activity against Myzus persicae (green peach aphid), feeding/contact activity; conditions: 144 h, application rate of 200 ppm, mixed ages, 6 days after infestation
Method: Sunflower leaf discs were placed onto agar in a 24-well microtiter plate and sprayed with aqueous test solutions prepared from 10′000 ppm DMSO stock solutions. After drying, the leaf discs were infested with an aphid population of mixed ages. The samples were assessed for mortality 6 days after infestation.

CCS(=O)(=O)c1cc(C(C)(C)F)cnc1-c1cc2c(cn1)N(CC(F)(F)C(F)(F)F)C(=O)CC2 [P23, 6-[3-ethylsulfonyl-5-(1-fluoro-1-methyl-ethyl)-2-pyridyl]-1-(2,2,3,3,3-pentafluoropropyl)-3,4-dihydro-1,7-naphthyridin-2-one]
≥ 80%: mortality at 200 ppm [1] | percent effect (mortality or growth inhibition) at 200 ppm [2] | percent effect (mortality or growth inhibition) at 200 ppm [3] | percent effect (mortality or growth inhibition) at 200 ppm [4] | mortality at 200 ppm [5] | mortality at 200 ppm [6] | percent effect (mortality or growth inhibition) at 12.5 ppm [7] | mortality at 12.5 ppm [8]

CCSc1cc(C2(C#N)CC2)cnc1-c1cc2c(cn1)N(CC(F)(F)C(F)(F)F)C(=O)OC2 [P4, 1-[5-ethylsulfanyl-6-[2-oxo-1-(2,2,3,3,3-pentafluoropropyl)-4H-pyrido[3,4-d][1,3]oxazin-6-yl]-3-pyridyl]cyclopropanecarbonitrile]
≥ 80%: mortality at 200 ppm [1] | percent effect (mortality or growth inhibition) at 200 ppm [2] | percent effect (mortality or growth inhibition) at 200 ppm [3] | mortality at 200 ppm [9] | mortality at 200 ppm [10] | percent effect (mortality or growth inhibition) at 200 ppm [4] | mortality at 200 ppm [5]
